According to patent publication US12723063B2, “GIPR-agonist compounds” (Eli Lilly and Company, priority 2019, dated 2026):
*1 amine or outer side, *2 acyl side, *3 side chain or, on linkers, in order; H or OH if unused. Where a SMILES comes first, the peptide text is derived from it. Side-chain parts run from the residue outwards. [ ]: non-standard residue; d: D form. The star is where a group is joined. C20 diacid = O=C(O)CCCCCCCCCCCCCCCCCCC(=O)*; αMePhe(2-F) = C[C@](N)(Cc1ccccc1F)C(=O)O; γGlu = O=C(O)[C@H](CCC(=O)[*:2])N[*:1]; αMeF = C[C@](N)(Cc1ccccc1)C(=O)O; 4Pal = N[C@@H](Cc1ccncc1)C(=O)O; αMeL = CC(C)C[C@](C)(N)C(=O)O; Iva = CC[C@](C)(N)C(=O)O; AEEA = NCCOCCOCC(=O)O; Aib = CC(C)(N)C(=O)O

Experiments:
human GIPR = molecular target: T1, human GIPR (Homo sapiens, UniProt P48546); assay: [125I]-GIP binding, SPA with WGA beads, 0.1% bacitracin; conditions: geometric mean, read-out: hGIPR Ki
T1 construct: expressed in transfected cells; crude membranes
T1 sequence (P48546 22-466): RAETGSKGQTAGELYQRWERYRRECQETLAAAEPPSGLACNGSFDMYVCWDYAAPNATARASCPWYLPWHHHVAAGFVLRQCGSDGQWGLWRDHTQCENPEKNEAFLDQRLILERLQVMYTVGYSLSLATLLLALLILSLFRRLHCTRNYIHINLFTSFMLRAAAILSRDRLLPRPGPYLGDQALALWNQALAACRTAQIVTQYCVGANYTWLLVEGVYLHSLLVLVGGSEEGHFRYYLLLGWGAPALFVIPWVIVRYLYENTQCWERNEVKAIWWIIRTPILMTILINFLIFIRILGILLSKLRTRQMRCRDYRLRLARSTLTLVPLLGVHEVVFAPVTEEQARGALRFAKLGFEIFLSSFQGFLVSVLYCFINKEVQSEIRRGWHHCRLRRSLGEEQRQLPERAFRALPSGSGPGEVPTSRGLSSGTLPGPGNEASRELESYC
Procedure, shortened: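 Ki values are geometric means (SEM, n independent days), derived from four-parameter nonlinear regression of IC50. Membranes came from hGIPR-expressing CHO cells.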

human GLP-1R = molecular target: T2, human GLP-1R (Homo sapiens, UniProt P43220); assay: [125I]-GLP-1 binding, SPA with WGA beads, 0.1% bacitracin; conditions: geometric mean, read-out: hGLP1R Ki
T2 construct: expressed in transfected cells; crude membranes
T2 sequence (P43220 24-463): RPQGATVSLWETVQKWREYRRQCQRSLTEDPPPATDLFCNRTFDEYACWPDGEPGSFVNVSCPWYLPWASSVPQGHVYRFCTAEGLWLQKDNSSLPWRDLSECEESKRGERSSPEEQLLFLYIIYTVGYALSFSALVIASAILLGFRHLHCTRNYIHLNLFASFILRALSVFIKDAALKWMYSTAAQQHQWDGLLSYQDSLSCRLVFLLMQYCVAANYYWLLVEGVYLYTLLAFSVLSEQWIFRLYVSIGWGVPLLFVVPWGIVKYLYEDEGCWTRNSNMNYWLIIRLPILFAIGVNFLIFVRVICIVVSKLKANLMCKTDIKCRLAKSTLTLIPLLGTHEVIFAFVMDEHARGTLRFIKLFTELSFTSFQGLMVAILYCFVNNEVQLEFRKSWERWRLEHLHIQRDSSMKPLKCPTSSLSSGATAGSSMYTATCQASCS
Procedure, shortened: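 Binding buffer was 25 mM HEPES pH 7.4 with 2.5 mM CaCl2, 1 mM MgCl2, 0.1% (w/v) bacitracin, 0.003% Tween-20 and EDTA-free protease inhibitors. Four-parameter regression gave IC50, converted to Ki (geometric mean, SEM, n independent days).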

CC[C@H](C)[C@H](NC(=O)[C@H](CO)NC(=O)[C@H](Cc1ccc(O)cc1)NC(=O)[C@H](CC(=O)O)NC(=O)[C@H](CO)NC(=O)[C@@H](NC(=O)[C@](C)(Cc1ccccc1F)NC(=O)[C@@H](NC(=O)CNC(=O)[C@H](CCC(=O)O)NC(=O)C(C)(C)NC(=O)[C@@H](N)Cc1ccc(O)cc1)[C@@H](C)O)[C@@H](C)CC)C(=O)N[C@@H](C)C(=O)N[C@@H](CC(C)C)C(=O)N[C@@H](CC(=O)O)C(=O)N[C@@H](CCCCN)C(=O)N[C@@H](CCCCNC(=O)COCCOCCNC(=O)COCCOCCNC(=O)CC[C@H](NC(=O)CCCCCCCCCCCCCCCCCCC(=O)O)C(=O)O)C(=O)N[C@@H](Cc1c[nH]cn1)C(=O)N[C@@H](CCC(N)=O)C(=O)NC(C)(C)C(=O)N[C@@H](CC(=O)O)C(=O)N[C@@H](Cc1ccccc1)C(=O)N[C@H](C(=O)N[C@@H](CCC(=O)O)C(=O)N[C@@H](Cc1ccc(O)cc1)C(=O)N[C@@H](CC(C)C)C(=O)N[C@@H](CC(C)C)C(=O)N[C@@H](CCC(=O)O)C(=O)NCC(=O)NCC(=O)N1CCC[C@H]1C(=O)N[C@@H](CO)C(=O)N[C@@H](CO)C(=O)NCC(=O)N[C@@H](C)C(=O)N1CCC[C@H]1C(=O)N1CCC[C@H]1C(=O)N1CCC[C@H]1C(=O)N[C@@H](CO)C(N)=O)C(C)C [Example 37] (H-Y[Aib]EGT[αMePhe(2-F)]ISDYSIALDKK([AEEA-AEEA-γGlu-C20 diacid])HQ[Aib]DFVEYLLEGGPSSGAPPPS-NH2)
Ki (human GIPR): 0.026 nM
Ki (human GLP-1R): 83.9 nM

CC[C@H](C)[C@H](NC(=O)[C@H](CO)NC(=O)[C@H](Cc1ccc(O)cc1)NC(=O)[C@H](CC(=O)O)NC(=O)[C@H](CO)NC(=O)[C@@H](NC(=O)[C@](C)(CC)NC(=O)[C@@H](NC(=O)CNC(=O)[C@H](CCC(=O)O)NC(=O)C(C)(C)NC(=O)[C@@H](N)Cc1ccc(O)cc1)[C@@H](C)O)[C@@H](C)CC)C(=O)N[C@@](C)(CC(C)C)C(=O)N[C@@H](CC(C)C)C(=O)N[C@@H](CC(=O)O)C(=O)N[C@@H](CCCCN)C(=O)N[C@@H](CCCCNC(=O)COCCOCCNC(=O)COCCOCCNC(=O)CC[C@H](NC(=O)CCCCCCCCCCCCCCCCCCC(=O)O)C(=O)O)C(=O)N[C@@H](Cc1c[nH]cn1)C(=O)N[C@@H](CCC(N)=O)C(=O)NC(C)(C)C(=O)N[C@@H](CC(=O)O)C(=O)N[C@@H](Cc1ccccc1)C(=O)N[C@H](C(=O)N[C@@H](CCC(=O)O)C(=O)N[C@@H](Cc1ccncc1)C(=O)N[C@@H](CC(C)C)C(=O)N[C@@H](CC(C)C)C(=O)N[C@@H](C)C(=O)NCC(=O)NCC(=O)N1CCC[C@H]1C(=O)N[C@@H](CO)C(=O)N[C@@H](CO)C(=O)NCC(=O)N[C@@H](C)C(=O)N1CCC[C@H]1C(=O)N1CCC[C@H]1C(=O)N1CCC[C@H]1C(=O)N[C@@H](CO)C(N)=O)C(C)C [Example 55] (H-Y[Aib]EGT[Iva]ISDYSI[αMeL]LDKK([AEEA-AEEA-γGlu-C20 diacid])HQ[Aib]DFVE[4Pal]LLAGGPSSGAPPPS-NH2)
Ki (human GIPR): 0.0331 nM
Ki (human GLP-1R): 262 nM

CC[C@H](C)[C@H](NC(=O)[C@H](Cc1ccccc1)NC(=O)[C@@H](NC(=O)CNC(=O)[C@H](CCC(=O)O)NC(=O)C(C)(C)NC(=O)[C@@H](N)Cc1ccc(O)cc1)[C@@H](C)O)C(=O)N[C@@H](CO)C(=O)N[C@@H](CC(=O)O)C(=O)N[C@@H](Cc1ccc(O)cc1)C(=O)N[C@@H](CO)C(=O)N[C@H](C(=O)N[C@@](C)(CC(C)C)C(=O)N[C@@H](CC(C)C)C(=O)N[C@@H](CC(=O)O)C(=O)N[C@@H](CCCCN)C(=O)N[C@@H](CCCCNC(=O)COCCOCCNC(=O)COCCOCCNC(=O)CC[C@H](NC(=O)CCCCCCCCCCCCCCCCCCC(=O)O)C(=O)O)C(=O)N[C@@H](Cc1c[nH]cn1)C(=O)N[C@@H](CCC(N)=O)C(=O)NC(C)(C)C(=O)N[C@@H](CC(=O)O)C(=O)N[C@@H](Cc1ccccc1)C(=O)N[C@H](C(=O)N[C@@H](CCC(=O)O)C(=O)N[C@@H](Cc1ccncc1)C(=O)N[C@@H](CC(C)C)C(=O)N[C@@H](CC(C)C)C(=O)N[C@@H](CCC(=O)O)C(=O)NCC(=O)NCC(=O)N1CCC[C@H]1C(=O)N[C@@H](CO)C(=O)N[C@@H](CO)C(=O)NCC(=O)N[C@@H](C)C(=O)N1CCC[C@H]1C(=O)N1CCC[C@H]1C(=O)N1CCC[C@H]1C(=O)N[C@@H](CO)C(N)=O)C(C)C)[C@@H](C)CC [Example 47] (H-Y[Aib]EGTFISDYSI[αMeL]LDKK([AEEA-AEEA-γGlu-C20 diacid])HQ[Aib]DFVE[4Pal]LLEGGPSSGAPPPS-NH2)
Ki (human GIPR): 0.0452 nM
Ki (human GLP-1R): 320 nM

CC[C@H](C)[C@H](NC(=O)[C@H](CO)NC(=O)[C@H](Cc1ccc(O)cc1)NC(=O)[C@H](CC(=O)O)NC(=O)[C@H](CO)NC(=O)[C@@H](NC(=O)[C@](C)(Cc1ccccc1)NC(=O)[C@@H](NC(=O)CNC(=O)[C@H](CCC(=O)O)NC(=O)C(C)(C)NC(=O)[C@@H](N)Cc1ccc(O)cc1)[C@@H](C)O)[C@@H](C)CC)C(=O)N[C@@](C)(CC(C)C)C(=O)N[C@@H](CC(C)C)C(=O)N[C@@H](CC(=O)O)C(=O)N[C@@H](CCCCN)C(=O)N[C@@H](CCCCNC(=O)COCCOCCNC(=O)COCCOCCNC(=O)CC[C@H](NC(=O)CCCCCCCCCCCCCCCCCCC(=O)O)C(=O)O)C(=O)N[C@@H](Cc1c[nH]cn1)C(=O)N[C@@H](CCC(N)=O)C(=O)NC(C)(C)C(=O)N[C@@H](CC(=O)O)C(=O)N[C@@H](Cc1ccccc1)C(=O)N[C@H](C(=O)N[C@@H](CCC(=O)O)C(=O)N[C@@H](Cc1ccncc1)C(=O)N[C@@H](CC(C)C)C(=O)N[C@@H](CC(C)C)C(=O)N[C@@H](C)C(=O)NCC(=O)NCC(=O)N1CCC[C@H]1C(=O)N[C@@H](CO)C(=O)N[C@@H](CO)C(=O)NCC(=O)N[C@@H](C)C(=O)N1CCC[C@H]1C(=O)N1CCC[C@H]1C(=O)N1CCC[C@H]1C(=O)N[C@@H](CO)C(N)=O)C(C)C [Example 50] (H-Y[Aib]EGT[αMeF]ISDYSI[αMeL]LDKK([AEEA-AEEA-γGlu-C20 diacid])HQ[Aib]DFVE[4Pal]LLAGGPSSGAPPPS-NH2)
Ki (human GIPR): 0.0501 nM
Ki (human GLP-1R): 34.9 nM

CC[C@H](C)[C@H](NC(=O)[C@H](CO)NC(=O)[C@H](Cc1ccc(O)cc1)NC(=O)[C@H](CC(=O)O)NC(=O)[C@H](CO)NC(=O)[C@@H](NC(=O)[C@](C)(Cc1ccccc1)NC(=O)[C@@H](NC(=O)CNC(=O)[C@H](CCC(=O)O)NC(=O)C(C)(C)NC(=O)[C@@H](N)Cc1ccc(O)cc1)[C@@H](C)O)[C@@H](C)CC)C(=O)N[C@@H](C)C(=O)N[C@@H](CC(C)C)C(=O)N[C@@H](CC(=O)O)C(=O)N[C@@H](CCCCN)C(=O)N[C@@H](CCCCNC(=O)COCCOCCNC(=O)COCCOCCNC(=O)CC[C@H](NC(=O)CCCCCCCCCCCCCCCCCCC(=O)O)C(=O)O)C(=O)N[C@@H](Cc1c[nH]cn1)C(=O)N[C@@H](CCC(N)=O)C(=O)NC(C)(C)C(=O)N[C@@H](CC(=O)O)C(=O)N[C@@H](Cc1ccccc1)C(=O)N[C@H](C(=O)N[C@@H](CCC(=O)O)C(=O)N[C@@H](Cc1ccncc1)C(=O)N[C@@H](CC(C)C)C(=O)N[C@@H](CC(C)C)C(=O)N[C@@H](CCC(=O)O)C(=O)NCC(=O)NCC(=O)N1CCC[C@H]1C(=O)N[C@@H](CO)C(=O)N[C@@H](CO)C(=O)NCC(=O)N[C@@H](C)C(=O)N1CCC[C@H]1C(=O)N1CCC[C@H]1C(=O)N1CCC[C@H]1C(=O)N[C@@H](CO)C(N)=O)C(C)C [Example 44] (H-Y[Aib]EGT[αMeF]ISDYSIALDKK([AEEA-AEEA-γGlu-C20 diacid])HQ[Aib]DFVE[4Pal]LLEGGPSSGAPPPS-NH2)
Ki (human GIPR): 0.059 nM
Ki (human GLP-1R): 209 nM
